Laboratory results as given in PMC5303009, “Benzenesulphonamide inhibitors of the cytolytic protein perforin” (Bioorganic & Medicinal Chemistry Letters, 2017).
“And” between values parts separate entries of the source, which are not always exact repeats. Equal values may be shown once. Read-outs that look alike come from different tables or passages of the source.

Columns and labels:
recombinant perforin [1] = target: T1, recombinant perforin (Mus musculus, UniProt P10820); assay: Inhibition of perforin-mediated lysis of Jurkat cells (51Cr release); type: cell-based
T1 sequence (P10820 21-554): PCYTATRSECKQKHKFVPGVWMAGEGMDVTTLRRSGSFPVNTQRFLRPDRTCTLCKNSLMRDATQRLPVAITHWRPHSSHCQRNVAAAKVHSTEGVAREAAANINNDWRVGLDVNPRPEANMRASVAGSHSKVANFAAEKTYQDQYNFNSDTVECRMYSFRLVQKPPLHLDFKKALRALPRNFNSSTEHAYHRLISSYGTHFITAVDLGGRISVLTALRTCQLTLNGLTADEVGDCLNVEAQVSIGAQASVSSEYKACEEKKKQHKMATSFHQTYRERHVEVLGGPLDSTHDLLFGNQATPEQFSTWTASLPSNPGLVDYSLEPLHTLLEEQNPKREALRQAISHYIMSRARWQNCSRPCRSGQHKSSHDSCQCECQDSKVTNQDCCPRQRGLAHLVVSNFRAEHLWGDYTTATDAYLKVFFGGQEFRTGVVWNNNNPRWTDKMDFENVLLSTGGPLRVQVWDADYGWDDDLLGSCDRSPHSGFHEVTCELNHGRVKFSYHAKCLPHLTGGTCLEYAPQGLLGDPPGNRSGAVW
Experimental: The ability of the compounds to inhibit the lysis of nucleated (Jurkat T lymphoma) cells in the presence of 0.1% BSA, as measured by release of ^51Cr was measured. Jurkat target cells were labelled by incubation in medium with 100 µCi ^51Cr for one hour. The cells were then washed three times to remove unincorporated isotope and re-suspended at 1 x 10^5 cells per mL in RPMI buffer supplemented with 0.1% BSA. […] The supernatant was collected and assessed for its radioactive content on a gamma counter (Wallac Wizard 1470 automatic gamma counter). Each data point was performed in triplicate and an IC50 was calculated from the range of concentrations described to above.

Microsome stability, rat = type: in vitro ADME; conditions: sodium salt, rat microsomes, 30 min
[2] = Microsome stability, human; type: in vitro ADME; conditions: sodium salt, human microsomes, 30 min
[3] = Solubility of the sodium salt in water; type: physicochemical
[4] = Plasma protein binding by equilibrium dialysis; type: in vitro ADME; conditions: mouse plasma, 6 h incubation at 37 °C
[5] = Microsome stability, mouse; type: in vitro ADME; conditions: sodium salt, mouse microsomes, 30 min
[6] = Stability in solution (water); type: physicochemical; conditions: sodium salt, 24 h at 20 °C in water
KHYG-1 NK cells = assay: Toxicity to KHYG-1 NK cells (Trypan blue exclusion); type: cell-based, human; conditions: after 24 h, ± SEM, 20 µM
Experimental: (§1) The use of NK cells to secrete perforin rather than employing isolated recombinant protein is a more stringent test of a compound’s ability to block lytic activity, requiring the inhibitor to access the synaptic cleft between effector (NK) and target cells where perforin is released.
(§2) The toxicity assay was carried out in exactly the same manner as the killing assay above, but instead of adding the labelled K562 target cells, 100 μL of RPMI 0.1% BSA was added. Cells were incubated for 4 h at 37 °C and then washed ×3 in RPMI + 0.1% BSA. […] Trypan blue was added to each well. Viable (clear) cells and total (clear + blue) cells were counted, and the percentage of viable cells was calculated compared to DMSO treated cell control (% viability).

[7] = as above; type: cell-based, human; conditions: human, KHYG-1 NK cells, after 24 h, ± SEM
Experimental: as §1, §2

recombinant perforin [8] = target: T1, recombinant perforin; assay: Inhibition of perforin-mediated lysis of Jurkat cells (51Cr release); type: cell-based; conditions: read-out: Inhibitory activity in Jurkat assay at 20 μM with serum
recombinant perforin [9] = target: T1, recombinant perforin; conditions: diarylthiophene series; cited from earlier work
[10] = target: T2, perforin delivered by KHYG-1 NK cells (Homo sapiens, UniProt P14222); assay: KHYG-1 cytotoxicity assay: inhibition of NK cell lysis of 51Cr-labelled K562 target cells; type: cell-based; conditions: lysis of 51Cr-labelled K562 cells co-incubated with KHYG-1 NK cells, vs untreated control, ± SEM
T2 construct: The use of NK cells to secrete perforin rather than employing isolated recombinant protein is a more stringent test; endogenous in cells; host or cells: KHYG-1 NK cells (effector), K562 target cells
T2 sequence (P14222 22-555): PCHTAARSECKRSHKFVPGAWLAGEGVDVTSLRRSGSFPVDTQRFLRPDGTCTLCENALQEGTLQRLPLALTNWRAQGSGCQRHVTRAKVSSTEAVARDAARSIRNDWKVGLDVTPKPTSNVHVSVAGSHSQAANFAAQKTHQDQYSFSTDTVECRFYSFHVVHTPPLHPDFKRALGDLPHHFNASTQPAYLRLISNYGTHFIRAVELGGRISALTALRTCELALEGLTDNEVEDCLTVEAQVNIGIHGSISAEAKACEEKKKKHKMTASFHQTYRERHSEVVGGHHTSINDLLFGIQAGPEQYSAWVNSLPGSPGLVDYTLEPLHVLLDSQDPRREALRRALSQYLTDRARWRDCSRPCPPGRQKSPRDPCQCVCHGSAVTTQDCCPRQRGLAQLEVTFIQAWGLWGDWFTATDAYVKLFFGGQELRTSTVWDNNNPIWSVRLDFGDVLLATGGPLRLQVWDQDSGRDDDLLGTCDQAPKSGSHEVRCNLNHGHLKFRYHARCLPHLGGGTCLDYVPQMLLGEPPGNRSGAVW
Experimental: as §1
Test compounds are then added (50 µL) at a final concentration of 20µM and incubated at RT for 20 min. ^51Cr-labelled K562 leukemia target cells (50 µL, 2 x 10^5 cells/mL) are then added to each well and incubated at 37 °C for 4 hours. ^51Cr release is assayed using a Skatron Harvesting Press and radioactivity estimated on a Wallac Wizard 1470 Automatic Gamma counter (Turku, Finland). The inhibitory function is then determined by identifying the number of untreated or inhibitor treated effector cells required to kill the same number of targets. The percent inhibition is calculated by the formula: […]
Where x is the point the inhibitor intersects with the DMSO on a curve.

[11] = target: Class I PI3-kinase enzyme p110α/p85 (Homo sapiens, UniProt P42336); assay: PI3K-α counterscreening; type: biochemical; conditions: recombinant PI3-kinase, phosphatidylinositol substrate, [33P]-ATP; read-out: PI3Kα IC50
Sequence of Class I PI3-kinase enzyme p110α/p85 (P42336 whole entry): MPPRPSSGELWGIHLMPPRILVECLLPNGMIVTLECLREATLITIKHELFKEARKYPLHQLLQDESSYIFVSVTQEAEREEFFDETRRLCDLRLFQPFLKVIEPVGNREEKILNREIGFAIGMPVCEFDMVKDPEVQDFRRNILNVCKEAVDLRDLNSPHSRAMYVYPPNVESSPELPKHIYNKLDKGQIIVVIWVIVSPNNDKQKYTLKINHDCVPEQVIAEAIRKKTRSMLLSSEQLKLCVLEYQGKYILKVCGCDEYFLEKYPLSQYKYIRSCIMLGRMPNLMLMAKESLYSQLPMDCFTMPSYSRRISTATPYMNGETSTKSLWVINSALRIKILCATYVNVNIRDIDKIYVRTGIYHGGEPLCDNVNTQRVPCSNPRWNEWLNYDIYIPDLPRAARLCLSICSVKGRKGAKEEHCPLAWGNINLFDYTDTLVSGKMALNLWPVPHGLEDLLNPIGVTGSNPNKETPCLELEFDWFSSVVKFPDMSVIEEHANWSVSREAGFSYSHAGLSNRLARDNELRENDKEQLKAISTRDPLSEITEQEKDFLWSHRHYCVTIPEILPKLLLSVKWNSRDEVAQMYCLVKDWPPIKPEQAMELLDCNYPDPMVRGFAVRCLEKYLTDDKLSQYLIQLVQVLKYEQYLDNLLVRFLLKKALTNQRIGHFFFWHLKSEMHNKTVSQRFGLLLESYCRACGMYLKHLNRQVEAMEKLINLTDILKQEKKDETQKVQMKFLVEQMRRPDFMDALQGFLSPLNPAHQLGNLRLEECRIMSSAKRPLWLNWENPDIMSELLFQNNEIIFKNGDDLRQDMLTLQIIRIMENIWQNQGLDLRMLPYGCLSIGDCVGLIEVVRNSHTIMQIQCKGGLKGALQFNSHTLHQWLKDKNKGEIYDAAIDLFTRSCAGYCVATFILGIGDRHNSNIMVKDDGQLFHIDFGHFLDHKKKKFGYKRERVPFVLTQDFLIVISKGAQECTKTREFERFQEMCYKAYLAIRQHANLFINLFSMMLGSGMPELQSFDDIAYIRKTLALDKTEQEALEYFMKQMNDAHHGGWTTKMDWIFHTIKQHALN
Sequence of Class I PI3-kinase enzyme p110α/p85 (P27986 whole entry partner): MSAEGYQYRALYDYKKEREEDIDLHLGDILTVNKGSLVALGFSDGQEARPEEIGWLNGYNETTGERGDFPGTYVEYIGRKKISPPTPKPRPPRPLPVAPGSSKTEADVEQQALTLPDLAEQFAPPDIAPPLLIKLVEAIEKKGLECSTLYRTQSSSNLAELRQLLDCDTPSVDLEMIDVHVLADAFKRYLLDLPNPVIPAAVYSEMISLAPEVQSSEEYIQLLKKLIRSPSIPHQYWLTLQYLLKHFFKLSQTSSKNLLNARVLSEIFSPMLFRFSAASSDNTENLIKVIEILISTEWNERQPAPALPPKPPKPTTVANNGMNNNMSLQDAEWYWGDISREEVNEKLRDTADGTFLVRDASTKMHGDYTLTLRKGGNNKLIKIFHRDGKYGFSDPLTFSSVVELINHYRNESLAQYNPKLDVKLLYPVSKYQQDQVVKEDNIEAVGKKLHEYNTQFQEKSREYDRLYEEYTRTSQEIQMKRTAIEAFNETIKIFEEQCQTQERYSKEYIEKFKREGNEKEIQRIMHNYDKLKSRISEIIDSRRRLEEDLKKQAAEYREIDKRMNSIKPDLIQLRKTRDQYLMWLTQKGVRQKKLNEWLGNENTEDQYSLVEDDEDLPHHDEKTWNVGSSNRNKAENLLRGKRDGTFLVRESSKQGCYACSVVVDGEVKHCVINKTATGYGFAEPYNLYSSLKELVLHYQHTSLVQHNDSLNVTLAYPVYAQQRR
Experimental: Given that the pyridine-3-yl-2,4-difluorobenzenesulphonamide subunit is derived from a structure that was optimised to target PI3Kα, it was also considered prudent to counter-screen for off-target effects related to this pathway.
Compounds were evaluated for their ability to inhibit the Class I PI3-kinase enzyme p110α/p85.

[12] = read-out: Inhibition of Jurkat cell lysis IC50; recombinant perforin, 0.1% BSA, 51Cr release, 4 h; average of at least two determinations
[13] = recombinant perforin, 0.1% BSA, 51Cr release, 4 h; average of at least two determinations; read-out: Inhibition of Jurkat cell lysis IC50
[14] = sodium salt in water at room temperature

## Cn1ccc2cc(-c3ccc(-c4cncc(NS(=O)(=O)c5ccc(F)cc5F)c4)s3)ccc21 [Compound 17]
Recombinant perforin [1]; [12]
  IC50: 7.58 µM

## CC1c2cc(-c3ccc(-c4cncc(NS(=O)(=O)c5ccc(F)cc5F)c4)s3)ccc2C(=O)N1C (stereo not drawn) [Compound 13]
Recombinant perforin [1]; recombinant perforin, 0.1% BSA, 51Cr release, 4 h; average of at least two determinations
  Inhibition of Jurkat cell lysis IC50: poor activity
Recombinant perforin [1]; [13]
  IC50: > 20 µM

## CN1Cc2cc(-c3ccc(-c4cncc(NS(=O)(=O)c5ccc(F)cc5F)c4)o3)ccc2C1=O [Compound 19]
Recombinant perforin [1]; [13]
  IC50: 15 µM

## CN1Cc2cc(-c3ccc(-c4cncc(NS(=O)(=O)c5ccc(F)cc5F)c4)nc3)ccc2C1=O [Compound 22]
Recombinant perforin [1]; [12]
  IC50: 8.17 µM

## O=C1NCc2ccc(-c3ccc(-c4cncc(NS(=O)(=O)c5ccc(F)cc5F)c4)s3)cc21 [Compound 7]
Microsome stability, rat
  Microsome stability (% parent remaining), Rat: 82%
Recombinant perforin [1]; [12]
  IC50: 4.15 µM
[2]
  Microsome stability (% parent remaining), Human: 83%
[3]; sodium salt in water
  solubility: 12900 µg/mL
[3]; [14]
  solubility: 12900 µg/mL
[4]
  fraction unbound at 6 h: 0.0003
[5]
  Microsome stability (% parent remaining), Mouse: 42%
[6]
  Stability in solution (% parent remaining): 97% and 97.3%
KHYG-1 NK cells
  KHYG-1 viability (% at 20 μM): 96 ± 6.0%
[7]
  viability at 24 h, 20 µM: > 90%

## O=C1Cc2cc(-c3ccc(-c4cncc(NS(=O)(=O)c5ccc(F)cc5F)c4)s3)ccc2N1 [Compound 14]
Microsome stability, rat
  Microsome stability (% parent remaining), Rat: 79%
Recombinant perforin [1]; compared with compound 15
  Fold superior to N-methyl partner 15 (Jurkat IC50): ~2 fold
Recombinant perforin [1]; [12]
  IC50: 5.18 µM
[2]
  Microsome stability (% parent remaining), Human: 71%
[3]; sodium salt in water
  solubility: 390 µg/mL
[3]; [14]
  solubility: 392 µg/mL
[4]
  fraction unbound at 6 h: 0.0009
[5]
  Microsome stability (% parent remaining), Mouse: 84%
[6]
  Stability in solution (% parent remaining): 88.7%
KHYG-1 NK cells
  KHYG-1 viability (% at 20 μM): 96 ± 1.0%
[7]
  viability at 24 h, 20 µM: > 90%

## CN1C(=O)Cc2cc(-c3ccc(-c4cncc(NS(=O)(=O)c5ccc(F)cc5F)c4)s3)ccc21 [Compound 15]
Recombinant perforin [1]; [12]
  IC50: 10.3 µM

## CN1Cc2cc(-c3nc(-c4cncc(NS(=O)(=O)c5ccc(F)cc5F)c4)cs3)ccc2C1=O [Compound 21]
Recombinant perforin [1]; [13]
  IC50: > 20 µM

## O=S(=O)(Nc1cncc(-c2ccc(-c3ccc4[nH]ccc4c3)s2)c1)c1ccc(F)cc1F [Compound 16]
Recombinant perforin [1]; Jurkat, read-out: Inhibitory activity in Jurkat assay at 20 μM
  inhibition at 20 µM: 88%
Recombinant perforin [8]
  inhibition at 20 µM: 32%

## NC(=O)c1ccc(-c2ccc(-c3ccc4c(c3)COC4=O)s2)cn1 [Compound 3]
Recombinant perforin [9]
  Inhibition of isolated perforin: sub-micromolar

## O=C1NCc2cc(-c3ccc(-c4cncc(NS(=O)(=O)c5ccc(F)cc5F)c4)s3)ccc21 [Compound 6]
Microsome stability, rat
  Microsome stability (% parent remaining), Rat: 88%
[2]
  Microsome stability (% parent remaining), Human: 85%
[3]; sodium salt in water
  solubility: 10600 µg/mL
[3]; [14]
  solubility: 10600 µg/mL
[4]
  fraction unbound at 6 h: 0.003
[5]
  Microsome stability (% parent remaining), Mouse: 92%
[6]
  Stability in solution (% parent remaining): 82.0%
KHYG-1 NK cells
  KHYG-1 viability (% at 20 μM): 94 ± 4.0%
[7]
  viability at 24 h, 20 µM: > 90%

## O=C1NCCc2ccc(-c3ccc(-c4cncc(NS(=O)(=O)c5ccc(F)cc5F)c4)s3)cc21 [Compound 11]
Recombinant perforin [1]; [13]
  IC50: > 20 µM

## CN1Cc2ccc(-c3ccc(-c4cncc(NS(=O)(=O)c5ccc(F)cc5F)c4)s3)cc2C1=O [Compound 8]
Recombinant perforin [1]; [12]
  IC50: 10.4 µM

## O=C1NCCc2cc(-c3ccc(-c4cncc(NS(=O)(=O)c5ccc(F)cc5F)c4)s3)ccc21 [Compound 9]
Recombinant perforin [1]; [13]
  IC50: > 20 µM

## CN1CCc2cc(-c3ccc(-c4cncc(NS(=O)(=O)c5ccc(F)cc5F)c4)s3)ccc2C1=O [Compound 10]
Recombinant perforin [1]; [13]
  IC50: > 20 µM

## CN1Cc2cc(-c3ncc(-c4cncc(NS(=O)(=O)c5ccc(F)cc5F)c4)s3)ccc2C1=O [Compound 20]
Recombinant perforin [1]; [12]
  IC50: 17.1 µM

## CN1Cc2cc(-c3ccc(-c4cncc(NS(=O)(=O)c5ccc(F)cc5F)c4)s3)ccc2C1=O [Compound 5]
[10]
  inhibition at 20 µM: 88 ± 3.8%
[11]
  IC50: > 6.25 µM
[2]
  Microsome stability (% parent remaining), Human: 58%
[3]; sodium salt in water
  solubility: 1100 µg/mL
[3]; [14]
  solubility: 1080 µg/mL
[4]
  fraction unbound at 6 h: 0.0011
[6]
  Stability in solution (% parent remaining): 82% and 81.5%

## CC(=O)c1cn(C)c2ccc(-c3ccc(-c4cncc(NS(=O)(=O)c5ccc(F)cc5F)c4)s3)cc12 [Compound 18]
Recombinant perforin [1]; [12]
  IC50: 11.2 µM

## CS(=O)(=O)Nc1ccc(-c2ccc(-c3ccc4c(c3)COC4=O)s2)cc1 [Compound 2]
Recombinant perforin [9]
  Inhibition of isolated perforin: sub-micromolar
